According to US20260356819A1, “OXOISOINDOLINYL-SUBSTITUTED […] DERIVATIVE AND USE THEREOF” (GLUETACS THERAPEUTICS (SHANGHAI) CO., LTD., priority 2023, published 2026):

Assays:
Format in all cases: cell-based
Conditions in all cases: compounds at 50 nM and 500 nM
WEE1 = biological target: T1, WEE1 (Homo sapiens, UniProt P30291+Q96SW2); experiment: Western blot degradation of WEE1 in hPBMCs (24 h)
T1 construct: The supernatant was aspirated as the extracted total cell protein; endogenous in cells; host or cells: human peripheral blood mononuclear cells (hPBMCs)
Summary of the method: (§1)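 hPBMCs (1×10^6 cells/mL) were treated with compound at 50 nM and 500 nM for 24 h, lysed in RIPA with protease inhibitors and analysed by SDS-PAGE/Western blot. Band grayscale, normalised to internal control, gave protein remaining (%); DC50 estimated versus DMSO bands.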

IKZF1 = biological target: T2, IKZF1 (Homo sapiens, UniProt Q13422+Q96SW2); experiment: Western blot degradation of IKZF1 in hPBMCs (24 h)
T2 construct: The supernatant was aspirated as the extracted total cell protein; endogenous in cells; host or cells: human peripheral blood mononuclear cells (hPBMCs)
Summary of the method: as §1

IKZF2 = biological target: T3, IKZF2 (Homo sapiens, UniProt Q96SW2+Q9UKS7); experiment: Western blot degradation of IKZF2 in hPBMCs (24 h)
T3 construct: The supernatant was aspirated as the extracted total cell protein; endogenous in cells; host or cells: human peripheral blood mononuclear cells (hPBMCs)
Summary of the method: as §1

IKZF3 = biological target: T4, IKZF3 (Homo sapiens, UniProt Q96SW2+Q9UKT9); experiment: Western blot degradation of IKZF3 in hPBMCs (24 h)
T4 construct: The supernatant was aspirated as the extracted total cell protein; endogenous in cells; host or cells: human peripheral blood mononuclear cells (hPBMCs)
Summary of the method: as §1

CK1α = biological target: T5, CK1α (Homo sapiens, UniProt P48729+Q96SW2); experiment: Western blot degradation of CK1α in hPBMCs (24 h)
T5 construct: The supernatant was aspirated as the extracted total cell protein; endogenous in cells; host or cells: human peripheral blood mononuclear cells (hPBMCs)
Summary of the method: as §1

GSPT1 = biological target: T6, GSPT1 (Homo sapiens, UniProt P15170+Q96SW2); experiment: Western blot degradation of GSPT1 in hPBMCs (24 h)
T6 construct: The supernatant was aspirated as the extracted total cell protein; endogenous in cells; host or cells: human peripheral blood mononuclear cells (hPBMCs)
Summary of the method: as §1

T2 sequence (Q13422 whole entry): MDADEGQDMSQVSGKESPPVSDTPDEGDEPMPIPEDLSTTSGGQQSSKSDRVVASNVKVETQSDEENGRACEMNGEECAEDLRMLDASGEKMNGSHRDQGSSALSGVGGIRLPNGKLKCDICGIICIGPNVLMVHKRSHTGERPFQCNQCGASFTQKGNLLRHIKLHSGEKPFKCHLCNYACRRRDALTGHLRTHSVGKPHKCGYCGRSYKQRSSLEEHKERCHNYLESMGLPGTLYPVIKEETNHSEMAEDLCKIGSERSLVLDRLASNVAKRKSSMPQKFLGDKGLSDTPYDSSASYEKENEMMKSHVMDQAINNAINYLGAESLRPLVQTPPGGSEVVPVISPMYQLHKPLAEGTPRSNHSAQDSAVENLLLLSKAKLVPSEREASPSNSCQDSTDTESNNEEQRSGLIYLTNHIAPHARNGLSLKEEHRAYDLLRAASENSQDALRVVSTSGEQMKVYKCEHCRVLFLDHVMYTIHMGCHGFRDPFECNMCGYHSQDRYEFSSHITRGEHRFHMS
T2 sequence (Q96SW2 whole entry): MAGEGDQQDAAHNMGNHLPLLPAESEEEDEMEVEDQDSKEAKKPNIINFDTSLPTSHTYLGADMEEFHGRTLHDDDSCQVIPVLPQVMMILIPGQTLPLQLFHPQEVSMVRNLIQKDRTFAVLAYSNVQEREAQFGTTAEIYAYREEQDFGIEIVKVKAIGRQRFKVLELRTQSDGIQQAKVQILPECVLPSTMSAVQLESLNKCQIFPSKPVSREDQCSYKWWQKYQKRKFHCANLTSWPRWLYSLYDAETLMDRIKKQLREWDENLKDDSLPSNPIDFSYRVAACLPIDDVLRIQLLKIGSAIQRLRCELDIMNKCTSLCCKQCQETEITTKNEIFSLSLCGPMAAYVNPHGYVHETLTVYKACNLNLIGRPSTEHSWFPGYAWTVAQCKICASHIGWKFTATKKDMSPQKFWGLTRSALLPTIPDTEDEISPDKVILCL
T2 sequence (Q16531 whole entry partner): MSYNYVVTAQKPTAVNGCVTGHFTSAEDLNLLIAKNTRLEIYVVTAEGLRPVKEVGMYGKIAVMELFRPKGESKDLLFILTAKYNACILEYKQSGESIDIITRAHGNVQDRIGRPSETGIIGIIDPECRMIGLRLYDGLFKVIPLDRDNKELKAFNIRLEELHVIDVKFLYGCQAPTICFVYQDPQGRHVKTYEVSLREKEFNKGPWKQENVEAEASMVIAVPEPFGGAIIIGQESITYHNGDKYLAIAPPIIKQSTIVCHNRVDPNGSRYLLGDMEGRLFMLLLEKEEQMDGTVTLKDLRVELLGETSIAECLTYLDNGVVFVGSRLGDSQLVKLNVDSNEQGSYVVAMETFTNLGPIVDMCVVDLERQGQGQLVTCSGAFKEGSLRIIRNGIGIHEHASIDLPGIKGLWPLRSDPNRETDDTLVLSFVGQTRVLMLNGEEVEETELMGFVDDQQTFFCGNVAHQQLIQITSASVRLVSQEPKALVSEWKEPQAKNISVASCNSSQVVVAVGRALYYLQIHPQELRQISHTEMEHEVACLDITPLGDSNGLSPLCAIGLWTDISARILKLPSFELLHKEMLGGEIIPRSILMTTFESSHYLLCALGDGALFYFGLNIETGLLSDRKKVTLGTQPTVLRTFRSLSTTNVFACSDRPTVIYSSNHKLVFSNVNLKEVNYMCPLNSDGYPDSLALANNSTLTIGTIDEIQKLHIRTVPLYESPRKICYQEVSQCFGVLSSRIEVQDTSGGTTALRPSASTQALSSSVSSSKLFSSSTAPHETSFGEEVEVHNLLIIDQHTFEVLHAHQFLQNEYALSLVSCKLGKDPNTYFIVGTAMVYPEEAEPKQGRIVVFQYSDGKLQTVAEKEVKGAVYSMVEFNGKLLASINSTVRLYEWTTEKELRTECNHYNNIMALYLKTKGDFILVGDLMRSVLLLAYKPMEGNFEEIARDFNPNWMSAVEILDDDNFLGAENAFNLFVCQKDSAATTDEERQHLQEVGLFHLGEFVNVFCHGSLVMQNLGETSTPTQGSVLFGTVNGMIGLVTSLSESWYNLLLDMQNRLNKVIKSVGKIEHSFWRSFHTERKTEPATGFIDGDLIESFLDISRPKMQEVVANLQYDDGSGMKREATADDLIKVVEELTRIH
T6 sequence (P15170 whole entry): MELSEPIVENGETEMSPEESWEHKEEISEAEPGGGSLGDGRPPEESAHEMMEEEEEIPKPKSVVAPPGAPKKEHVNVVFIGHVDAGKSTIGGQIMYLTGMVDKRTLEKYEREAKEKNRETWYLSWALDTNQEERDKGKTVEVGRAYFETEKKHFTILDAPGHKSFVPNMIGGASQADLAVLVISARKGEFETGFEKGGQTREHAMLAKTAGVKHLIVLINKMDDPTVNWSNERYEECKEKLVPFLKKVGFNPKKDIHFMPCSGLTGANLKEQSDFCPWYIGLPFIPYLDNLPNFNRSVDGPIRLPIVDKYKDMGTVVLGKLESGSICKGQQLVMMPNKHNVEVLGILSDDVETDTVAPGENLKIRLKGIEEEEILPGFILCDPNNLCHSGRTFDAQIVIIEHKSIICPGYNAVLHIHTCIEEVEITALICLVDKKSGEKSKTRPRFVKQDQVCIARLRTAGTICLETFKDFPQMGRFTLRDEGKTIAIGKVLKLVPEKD
T6 sequence (Q96SW2 whole entry): as the sequence (Q96SW2 whole entry) above
T6 sequence (Q16531 whole entry partner): as the sequence (Q16531 whole entry partner) above
T5 sequence (P48729 whole entry): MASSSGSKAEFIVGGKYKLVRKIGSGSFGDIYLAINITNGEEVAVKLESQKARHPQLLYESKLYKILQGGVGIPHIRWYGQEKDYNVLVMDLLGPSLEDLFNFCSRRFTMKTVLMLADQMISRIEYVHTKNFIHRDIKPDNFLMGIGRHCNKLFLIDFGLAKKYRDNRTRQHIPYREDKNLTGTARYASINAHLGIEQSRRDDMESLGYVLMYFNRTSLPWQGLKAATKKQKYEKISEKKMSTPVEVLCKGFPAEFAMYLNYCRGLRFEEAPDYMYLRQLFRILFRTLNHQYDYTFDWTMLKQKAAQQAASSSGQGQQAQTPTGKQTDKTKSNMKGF
T5 sequence (Q96SW2 whole entry): as the sequence (Q96SW2 whole entry) above
T5 sequence (Q16531 whole entry partner): as the sequence (Q16531 whole entry partner) above
T4 sequence (Q9UKT9 whole entry): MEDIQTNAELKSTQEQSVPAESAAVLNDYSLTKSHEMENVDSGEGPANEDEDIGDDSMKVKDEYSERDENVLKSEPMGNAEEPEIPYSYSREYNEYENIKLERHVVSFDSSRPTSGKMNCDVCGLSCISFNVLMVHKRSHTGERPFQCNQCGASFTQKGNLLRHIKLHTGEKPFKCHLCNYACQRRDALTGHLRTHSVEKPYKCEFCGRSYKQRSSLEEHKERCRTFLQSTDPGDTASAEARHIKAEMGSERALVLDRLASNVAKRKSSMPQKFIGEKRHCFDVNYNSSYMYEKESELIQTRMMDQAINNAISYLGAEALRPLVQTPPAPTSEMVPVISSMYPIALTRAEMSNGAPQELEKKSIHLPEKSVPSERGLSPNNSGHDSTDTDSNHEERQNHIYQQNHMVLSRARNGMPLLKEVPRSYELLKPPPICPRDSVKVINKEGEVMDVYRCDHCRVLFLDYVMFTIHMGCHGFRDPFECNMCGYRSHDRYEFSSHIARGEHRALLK
T4 sequence (Q96SW2 whole entry): as the sequence (Q96SW2 whole entry) above
T4 sequence (Q16531 whole entry partner): as the sequence (Q16531 whole entry partner) above
T1 sequence (P30291 whole entry): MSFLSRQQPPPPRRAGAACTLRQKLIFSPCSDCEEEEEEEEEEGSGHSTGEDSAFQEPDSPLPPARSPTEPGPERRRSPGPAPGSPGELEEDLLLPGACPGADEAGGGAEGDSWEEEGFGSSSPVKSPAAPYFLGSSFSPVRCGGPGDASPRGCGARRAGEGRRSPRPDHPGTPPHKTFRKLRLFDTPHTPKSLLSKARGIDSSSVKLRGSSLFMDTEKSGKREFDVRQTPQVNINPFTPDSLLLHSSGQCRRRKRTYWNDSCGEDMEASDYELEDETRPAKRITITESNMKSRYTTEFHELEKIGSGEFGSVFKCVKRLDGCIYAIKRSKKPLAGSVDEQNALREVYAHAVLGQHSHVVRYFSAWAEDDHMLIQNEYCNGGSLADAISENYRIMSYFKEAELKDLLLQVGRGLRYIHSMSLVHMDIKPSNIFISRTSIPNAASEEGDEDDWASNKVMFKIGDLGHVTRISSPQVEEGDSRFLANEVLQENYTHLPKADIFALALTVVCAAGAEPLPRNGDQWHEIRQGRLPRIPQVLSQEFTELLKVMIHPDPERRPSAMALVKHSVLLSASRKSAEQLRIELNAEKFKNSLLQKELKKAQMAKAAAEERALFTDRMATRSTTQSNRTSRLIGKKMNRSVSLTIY
T1 sequence (Q96SW2 whole entry): as the sequence (Q96SW2 whole entry) above
T1 sequence (Q16531 whole entry partner): as the sequence (Q16531 whole entry partner) above

O=C1CCN(N2C(=O)c3ccc(CN4CC=C(c5n[nH]c6cc(F)ccc56)CC4)cc3C2=O)C(=O)N1 [GT-07643, 2-(2,4-dioxotetrahydropyrimidin-1(2H)-yl)-5-((4-(6-fluoro-1H-indazol-3-yl)-3,6-dihydropyridin-1(2H)-yl)methyl)isoindoline-1,3-dione]
WEE1 substrate protein remaining % (WEE1): B (80%< substrate protein remaining % ≤100%)
IKZF1 substrate protein remaining % (IKZF1): B (80%< substrate protein remaining % ≤100%)
IKZF2 substrate protein remaining % (IKZF2): B (80%< substrate protein remaining % ≤100%)
IKZF3 substrate protein remaining % (IKZF3): B (80%< substrate protein remaining % ≤100%)
CK1α substrate protein remaining % (CK1α): B (80%< substrate protein remaining % ≤100%)
GSPT1 substrate protein remaining % (GSPT1): A (0% ≤ substrate protein remaining % ≤80%)

CC1(C)CCC(CN2CC3CC2CN3Cc2ccc3c(c2)C(=O)N(N2CCC(=O)NC2=O)C3=O)=C(c2ccc(Cl)cc2)C1 (stereo not drawn) [GT-07334, 5-((5-((4′-chloro-5,5-dimethyl-3,4,5,6-tetrahydro-[1,1′-biphenyl]-2-yl)methyl)-2,5-diazabicyclo[2.2.1]heptan-2-yl)methyl)-2-(2,4-dioxotetrahydropyrimidin-1(2H)-yl)isoindoline-1,3-dione]
WEE1 substrate protein remaining % (WEE1): A (0% ≤ substrate protein remaining % ≤80%)
IKZF1 substrate protein remaining % (IKZF1): B (80%< substrate protein remaining % ≤100%)
IKZF2 substrate protein remaining % (IKZF2): B (80%< substrate protein remaining % ≤100%)
IKZF3 substrate protein remaining % (IKZF3): B (80%< substrate protein remaining % ≤100%)
CK1α substrate protein remaining % (CK1α): A (0% ≤ substrate protein remaining % ≤80%)
GSPT1 substrate protein remaining % (GSPT1): B (80%< substrate protein remaining % ≤100%)

O=C1CCN(N2C(=O)c3ccc(CN4CCC(c5ncnc6sccc56)CC4)cc3C2=O)C(=O)N1 [GT-08106, 2-(2,4-dioxotetrahydropyrimidin-1(2H)-yl)-5-((4-(thieno[2,3-d]pyrimidin-4-yl)piperidin-1-yl)methyl)isoindoline-1,3-dione]
WEE1 substrate protein remaining % (WEE1): A (0% ≤ substrate protein remaining % ≤80%)
IKZF1 substrate protein remaining % (IKZF1): B (80%< substrate protein remaining % ≤100%)
IKZF2 substrate protein remaining % (IKZF2): B (80%< substrate protein remaining % ≤100%)
IKZF3 substrate protein remaining % (IKZF3): B (80%< substrate protein remaining % ≤100%)
CK1α substrate protein remaining % (CK1α): B (80%< substrate protein remaining % ≤100%)
GSPT1 substrate protein remaining % (GSPT1): A (0% ≤ substrate protein remaining % ≤80%)

Cc1nc(C2CCN(Cc3ccc4c(c3)CN(N3CCC(=O)NC3=O)C4=O)CC2)c2c3c(sc2n1)CCC3 [GT-08114, 1-(5-((4-(2-methyl-6,7-dihydro-5H-cyclopenta[4,5]thieno[2,3-d]pyrimidin-4-yl)piperidin-1-yl)methyl)-1-oxoisoindolin-2-yl)dihydropyrimidine-2,4(1H,3H)-dione]
WEE1 substrate protein remaining % (WEE1): B (80%< substrate protein remaining % ≤100%)
IKZF1 substrate protein remaining % (IKZF1): B (80%< substrate protein remaining % ≤100%)
IKZF2 substrate protein remaining % (IKZF2): B (80%< substrate protein remaining % ≤100%)
IKZF3 substrate protein remaining % (IKZF3): B (80%< substrate protein remaining % ≤100%)
CK1α substrate protein remaining % (CK1α): B (80%< substrate protein remaining % ≤100%)
GSPT1 substrate protein remaining % (GSPT1): A (0% ≤ substrate protein remaining % ≤80%)

O=C1CCN(N2Cc3cc(CN4CCC(n5cnc6cc(F)ccc65)CC4)ccc3C2=O)C(=O)N1 [GT-07503, 1-(5-((4-(5-fluoro-1H-benzo[d]imidazol-1-yl)piperidin-1-yl)methyl)-1-oxoisoindolin-2-yl)dihydropyrimidine-2,4(1H,3H)-dione]
WEE1 substrate protein remaining % (WEE1): A (0% ≤ substrate protein remaining % ≤80%)
IKZF1 substrate protein remaining % (IKZF1): A (0% ≤ substrate protein remaining % ≤80%)
IKZF2 substrate protein remaining % (IKZF2): B (80%< substrate protein remaining % ≤100%)
IKZF3 substrate protein remaining % (IKZF3): B (80%< substrate protein remaining % ≤100%)
CK1α substrate protein remaining % (CK1α): A (0% ≤ substrate protein remaining % ≤80%)
GSPT1 substrate protein remaining % (GSPT1): A (0% ≤ substrate protein remaining % ≤80%)
